For 19 molecules, IC50 results are on record in US20220106296A1, “CYANOTRIAZOLE COMPOUNDS AND USES THEREOF” (Novartis AG, priority 2018, published 2022).

A word on the IC50: it is the concentration that inhibits the measured activity by half.

What all share (type): cell-based
The test system of experiment [1] is T. b. brucei Lister427 bloodstream form parasites. As to the kind of experiment: T. b. brucei growth inhibition assay (CellTiter-Glo, 48 hours). The note with it: Trypanosoma brucei. An excerpt:
Bloodstream form of T. b. brucei Lister427 strain was obtained from the Genomics Institute of the Novartis Research Foundation. This strain was used for carrying out growth inhibition and kill kinetics assays. T. b. gambiense STIB930 and T. b. rhodesiense STIB900 were obtained from Swiss TPH, were used for carrying out the growth inhibition assays.
Bloodstream form T. b. brucei Lister 427 parasites were continuously passaged in HMI-9 medium formulated from IMDM medium (Invitrogen), 10% heat-inactivated fetal bovine serum (FBS), 10% Serum Plus medium supplement (SAFC Biosciences), 1 mM hypoxanthine (Sigma-Aldrich), 50 μM bathocuproine disulfonic acid (Sigma-Aldrich), 1.5 mM cysteine (Sigma-Aldrich), 1 mM pyruvic acid (Sigma-Aldrich), 39 μg/mL thymidine (Sigma-Aldrich), and 14 μL/L beta-mercapthoethanol (Sigma-Aldrich); all concentrations of added components refer to that in complete HMI-9 medium. The parasites were cultured in 10 mL of HMI-9 medium in T75 CELL-STAR tissue culture flasks at 37° C./5% CO2.
To determine compound growth inhibitory potency on T. b. brucei Lister427 bloodstream form parasites, 200 nL of 10-point, 3 fold serially diluted compounds in DMSO were transferred to the wells of white, solid bottom 384-well plates (Greiner Bio-One) by either Echo 555 acoustic liquid handling system or Mosquito. Then, 1×10^4 of T. b. brucei parasites in 40 μL of HMI-9 medium were added to each well, and the plates were incubated for 48 hours at 37° C. in 5% CO2 incubators. Parasite numbers in individual plate wells were determined through quantification of intracellular ATP amount. The CellTiter-Glo luminescent cell viability reagent (Promega) was added to plate wells, and ATP-dependent luminescence signal was measured on Tecan M1000 plate Reader after 30 min incubation. Luminescence values in wells with compounds were divided by the average luminescence value of the plate DMSO controls, and used for calculation of compound IC50 values.

Experiment [2] deals with intracellular T. cruzi amastigotes. The experiment can be described thus: T. cruzi amastigote growth inhibition assay (NIH 3T3 host cells, β-galactosidase readout). The note with it: Trypanosoma cruzi, NIH3T3, read-out: (c) T.c.* IC50. The protocol: NIH 3T3 fibroblast cells (ATCC) were maintained in RPMI-1640 medium (Life Technologies) supplemented with 10% heat-inactivated fetal bovine serum and 100 IU penicillin/100 μg/ml streptomycin at 37° C./5% CO2. T. cruzi Tulahuen parasites constitutively expressing E. coli β-galactosidase were maintained in tissue culture as an infection in NIH 3T3 fibroblast cells. Briefly, 2×10^7 T. cruzi trypomastigotes were used to infect 6×10^5 NIH 3T3 cells growing in T75 CELLSTAR tissue culture flasks and cultured at 37° C./5% CO2 until proliferating intracellular parasites lysed host 3T3 cells and were released into the culture medium (typically 6-7 days). During the infection, the tissue culture medium was changed every two days. Number of T. cruzi trypomastigotes present in 1 ml of medium was determined using a haemocytometer.
To determine compound potency on intracellular T. cruzi amastigotes, NIH 3T3 cells were re-suspended in phenol red-free RPMI-1640 medium containing 3% heat-inactivated fetal bovine serum and 100 IU penicillin/100 μg/ml streptomycin, seeded at 1,000 cells/well (40 μl) in white, clear bottom 384-well plates (Greiner Bio-One), and incubated overnight at 37° C./5% CO2. The following day, 100 nl of each compound in DMSO were transferred to individual plate wells by Echo 555 acoustic liquid handling system. After one hour incubation, 1×10^6 of tissue culture-derived T. cruzi trypomastigotes, in 10 μl of phenol red-free RPMI-1640 medium supplemented with 3% heat-inactivated fetal bovine serum and 100 IU penicillin/100 μg/ml streptomycin were added to each well. Plates were then incubated for 6 days at 37° C./5% CO2. Intracellular T. cruzi parasites were quantified by measuring the activity of parasite-expressed β-galactosidase. Ten microliters of a chromogenic β-galactosidase substrate solution (0.6 mM chlorophenol red-β-D-galactopyranoside/0.6% NP-40 in PBS; both reagents from Calbiochem) were added to each well and incubated for 2 h at room temperature. After incubation, absorption was measured at 570 nm on SpectraMax M2 plate reader (Molecular Devices). Measured absorbance values in wells with compounds were divided by the average absorbance value of the plate DMSO controls, and used for calculation of compound EC50 values as described above.

For experiment [3], the system named is Leishmania donovani axenic amastigote. As to the kind of experiment: Growth inhibition of Leishmania donovani axenic amastigote. Particulars: L. donovani growth inhibition, read-out: (d) L.d* IC50. The protocol:
Leishmania donovani axenic amastigote parasites are grown at 37° C., 5% CO2 in media made of RPMI 1640, 4 mM L-glutamine, 20% heat inactivated FBS, 100 units/ml of penicillin and 100 μg/ml of streptomycin, 23 μM Folic Acid, 100 μM Adenosine, 22 mM D-glucose, 25 mM MES. The pH of media is adjusted to 5.5 at 37° C. using HCl. 20 μL of media is first dispensed into 384 well plates and 100 nL of the compounds of invention in DMSO are added to the plate wells. At the same time control compounds and DMSO are added to plates to serve as the positive and negative controls, respectively. 40 μL of parasite culture (9600 parasites) are then added to the plate wells. The plates are then placed into incubators. After 2 day incubation, 20 μL of Cell TiterGlo (Promega) is added to the plate wells. The luminescence signal of each well is measured using the Envision reader (Perkin Elmer). The percentage inhibition of 50%, EC50, is calculated for each of the compounds.

As for `N#Cc1ncn(CC(=O)N2Cc3ccc(-c4c(F)cncc4Cl)cc3C2)n1` [Example 23, 1-(2-(5-(3-chloro-5-fluoropyridin-4-yl)isoindolin-2-yl)-2-oxoethyl)-1H-1,2,4-triazole-3-carbonitrile], the values for the IC50 in experiment [1] and in experiment [2] were < 100 nM and 100 to 1000 nM, respectively.

As for `N#Cc1ncn(CC(=O)N2Cc3ccc(-c4c(Cl)ccnc4F)cc3C2)n1` [Example 24, 1-(2-(5-(4-chloro-2-fluoropyridin-3-yl)isoindolin-2-yl)-2-oxoethyl)-1H-1,2,4-triazole-3-carbonitrile], the IC50 in experiment [1] and in experiment [2] was 100 to 1000 nM in each case.

In the case of `Cn1cc(-c2ccc3c(c2)CN(C(=O)Cn2cnc(C#N)n2)C3)c(C(F)(F)F)n1` [Example 25, 1-(2-(5-(1-methyl-3-(trifluoromethyl)-1H-pyrazol-4-yl)isoindolin-2-yl)-2-oxoethyl)-1H-1,2,4-triazole-3-carbonitrile], the IC50 in experiment [1] and in experiment [2] was 100 to 1000 nM in each case.

For `N#Cc1ncn(CC(=O)N2Cc3ccc(-c4ccc(F)nc4C(F)(F)F)cc3C2)n1` [Example 26, 1-(2-(5-(6-fluoro-2-(trifluoromethyl)pyridin-3-yl)isoindolin-2-yl)-2-oxoethyl)-1H-1,2,4-triazole-3-carbonitrile], the IC50 in experiment [1] was 100 to 1000 nM; in experiment [2], < 100 nM.

For `N#Cc1ncn(CC(=O)N2Cc3ccc(-c4ccc(F)cc4C#N)cc3C2)n1` [Example 32, 1-(2-(5-(2-cyano-4-fluorophenyl)isoindolin-2-yl)-2-oxoethyl)-1H-1,2,4-triazole-3-carbonitrile], the half-maximal inhibitory concentration (IC50) in experiment [1] is 100 to 1000 nM; in experiment [2] it was < 100 nM; in experiment [3], ≥ 1000 nM.

With `N#Cc1ncn(CC(=O)N2Cc3ccc(-c4c(Cl)cccc4Cl)cc3C2)n1` [Example 35, 1-(2-(5-(2,6-dichlorophenyl)isoindolin-2-yl)-2-oxoethyl)-1H-1,2,4-triazole-3-carbonitrile], the IC50 is 100 to 1000 nM in experiment [1], < 100 nM in experiment [2] and ≥ 1000 nM in experiment [3].

Turning to `N#Cc1ncn(CC(=O)N2Cc3ccc(-c4ccccc4C(F)(F)F)cc3C2)n1` [Example 36, 1-(2-oxo-2-(5-(2-(trifluoromethyl)phenyl)isoindolin-2-yl)ethyl)-1H-1,2,4-triazole-3-carbonitrile], the IC50 in experiment [1] was 100 to 1000 nM; in experiment [2], < 100 nM; in experiment [3], ≥ 1000 nM.

With `COCCOc1cc(F)ccc1-c1ccc2c(c1)CN(C(=O)Cn1cnc(C#N)n1)C2` [Example 39, 1-(2-(5-(4-fluoro-2-(2-methoxyethoxy)phenyl)isoindolin-2-yl)-2-oxoethyl)-1H-1,2,4-triazole-3-carbonitrile], the IC50 in experiment [1] was 100 to 1000 nM; in experiment [2], ≥ 1000 nM.

Turning to `N#Cc1ncn(CC(=O)N2Cc3ccc(-c4ccccc4OC(F)(F)F)cc3C2)n1` [Example 40, 1-(2-oxo-2-(5-(2-(trifluoromethoxy)phenyl)isoindolin-2-yl)ethyl)-1H-1,2,4-triazole-3-carbonitrile], the half-inhibitory concentration (IC50) in experiment [1] and in experiment [2] was 100 to 1000 nM in each case.

On to `N#Cc1ncn(CC(=O)N2Cc3ccc(-c4ccc(C(F)(F)F)cc4Cl)cc3C2)n1` [Example 42, 1-(2-(5-(2-chloro-4-(trifluoromethyl)phenyl)isoindolin-2-yl)-2-oxoethyl)-1H-1,2,4-triazole-3-carbonitrile], for which the IC50 in experiment [1] was 100 to 1000 nM; in experiment [2], ≥ 1000 nM.

As to `N#Cc1ncn(CC(=O)N2Cc3ccc(-c4ccccc4C#N)cc3C2)n1` [Example 43, 1-(2-(5-(2-cyanophenyl)isoindolin-2-yl)-2-oxoethyl)-1H-1,2,4-triazole-3-carbonitrile], the IC50 was 100 to 1000 nM in experiment [1], < 100 nM in experiment [2] and ≥ 1000 nM in experiment [3].

With `N#Cc1ncn(CC(=O)N2Cc3ccc(-c4cccc(C#N)c4F)cc3C2)n1` [Example 44, 1-(2-(5-(3-cyano-2-fluorophenyl)isoindolin-2-yl)-2-oxoethyl)-1H-1,2,4-triazole-3-carbonitrile], the IC50 in experiment [1] and in experiment [2] was 100 to 1000 nM throughout.

`N#Cc1ccc(-c2ccc3c(c2)CN(C(=O)Cn2cnc(C#N)n2)C3)cc1` [Example 46, 1-(2-(5-(4-cyanophenyl)isoindolin-2-yl)-2-oxoethyl)-1H-1,2,4-triazole-3-carbonitrile]: the IC50 in experiment [1] is 100 to 1000 nM; in experiment [2], 100 to 1000 nM; in experiment [3], ≥ 1000 nM.

In the case of `Cn1nc(C(F)(F)F)cc1-c1ccc2c(c1)CN(C(=O)Cn1cnc(C#N)n1)C2` [Example 48, 1-(2-(5-(1-methyl-3-(trifluoromethyl)-1H-pyrazol-5-yl)isoindolin-2-yl)-2-oxoethyl)-1H-1,2,4-triazole-3-carbonitrile], the IC50 in experiment [1] and in experiment [2] was 100 to 1000 nM in each case.

Regarding `CC(=O)c1ccccc1-c1ccc2c(c1)CN(C(=O)Cn1cnc(C#N)n1)C2` [Example 50, 1-(2-(5-(2-acetylphenyl)isoindolin-2-yl)-2-oxoethyl)-1H-1,2,4-triazole-3-carbonitrile], the IC50 in experiment [1] and in experiment [2] was 100 to 1000 nM each time.

As to `COc1cc(F)ccc1-c1ccc2c(c1)CN(C(=O)Cn1cnc(C#N)n1)C2` [Example 51, 1-(2-(5-(4-fluoro-2-methoxyphenyl)isoindolin-2-yl)-2-oxoethyl)-1H-1,2,4-triazole-3-carbonitrile], the half-inhibitory concentration (IC50) in experiment [1] and in experiment [2] was 100 to 1000 nM each time.

Turning to `COc1ccc(Cl)cc1-c1ccc2c(c1)CN(C(=O)Cn1cnc(C#N)n1)C2` [Example 52, 1-(2-(5-(5-chloro-2-methoxyphenyl)isoindolin-2-yl)-2-oxoethyl)-1H-1,2,4-triazole-3-carbonitrile], the 50% inhibitory concentration (IC50) in experiment [1] and in experiment [2] was 100 to 1000 nM in each case.

For `N#Cc1ncn(CC(=O)N2Cc3ccc(-c4cccc(F)c4C(F)(F)F)cc3C2)n1` [Example 84, 1-(2-(5-(3-fluoro-2-(trifluoromethyl)phenyl)isoindolin-2-yl)-2-oxoethyl)-1H-1,2,4-triazole-3-carbonitrile], the IC50 in experiment [1] was 100 to 1000 nM; in experiment [2] it was < 100 nM.

For `N#Cc1ncn(CC(=O)N2Cc3ccc(-c4cnccc4C(F)(F)F)cc3C2)n1` [Example 86, 1-(2-oxo-2-(5-(4-(trifluoromethyl)pyridin-3-yl)isoindolin-2-yl)ethyl)-1H-1,2,4-triazole-3-carbonitrile], the IC50 in experiment [1] and in experiment [2] was 100 to 1000 nM each time.
